Measurements reported in patent US6667034B2, “METHODS FOR REGULATING THE SPECIFIC LINEAGES OF CELLS PRODUCED IN A HUMAN HEMATOPOIETIC CELL CULTURE, METHODS FOR ASSAYING THE EFFECT OF SUBSTANCES ON LINEAGE-SPECIFIC CELL PRODUCTION, AND CELL COMPOSITIONS PRODUCED BY THESE CULTURES” (The Regents of the University of Michigan, priority 1989, dated 2003).

Legend:
Assay type in all cases: cell-based
[1] = tested on: Human bone marrow cells; experiment: Cumulative cell production by cell lineage in growth factor supplemented LTBMCs over the first 6.5 weeks (Example 5, Table 4); conditions: first 6.5 weeks of culture
Excerpt: Cells, hematopoietic progenitor cell assays, LTBMCs, and statistical analyses were as in Example 1.

[2] = tested on: Human bone marrow cells; experiment: Population balance: cumulative production of CFU-GM removed and differentiated in HGF supplemented LTBMCs (Example 5, Table 7)
Excerpt: (§1) Production of Progenitor Cells from Stem Cells. Although the most primitive hematopoietic cells that can be directly assayed are the progenitor cells; CFU-GEMM, CFU-GM, and BFU-E, the presence and activity or earlier stem cells can be inferred by the continued production of progenitor cells. Thus, progenitor cell production is an indirect measure of primitive stem cell activity. One can assay stem cells, therefore, by analyzing the kinetics of the progenitor cell pool. The four process rates that determine the progenitor cell pool size are: V1: The rate of production of progenitor cells by more undifferentiated stem cells; V2: The rate of loss of progenitor cells through the act of sampling of nonadherent cells from the culture; V3: The rate of loss of progenitor cells by their differentiation to mature cells of a particular lineage; V4: The rate of death of progenitor cells. The initial number, C0, of each progenitor cell species can be determined by assay at culture initiation. The question that we wish to answer is; Are stem cells being stimulated to produced progenitor cells—i.e. is V1 greater than zero? Cell death, V4, cannot be assessed. V2 however, can be measured by assaying the nonadherent cells removed from culture, and V3 can be estimated from nonadherent cell production data. A conservative estimate of the rate of progenitor cell differentiation, V3, can be determined by assuming that each progenitor cell has 10 divisions remaining to become a terminally differentiated cell. Therefore, each progenitor cell is equivalent to 2^10 (1024) mature cells. From the total number of mature cells produced of a specific lineage, the number of progenitor cells (BFU-E and CFU-GM) that differentiated can be back-calculated. Therefore, if the removal and differentiation of progenitor cells (V2+V3) exceeds the numbers of progenitor cells inoculated, Co, then progenitor cells must have been produced, and V1 is greater than zero.

[3] = tested on: Human bone marrow cells; experiment: Population balance: cumulative production of BFU-E removed and differentiated in HGF supplemented LTBMCs (Example 5, Table 6)
Excerpt: as §1

[4] = tested on: Human bone marrow cells; experiment: Cumulative number of progenitor cells removed from rapidly perfused HGF supplemented LTBMCs (Example 5, Table 5)
Procedure: Hematopoietic progenitor cell assay: Nonadherent hematopoietic cells removed from culture were counted and plated at 1·10^5 cells/ml or fewer cells in methylcellulose. GM-CSF and Epo were added to the methylcellulose at 20 ng/ml and 2 U/ml, respectively. The cells were plated in 24 well plates at 0.25 ml/well and incubated at 37° C. for 14 days. The colonies were then counted under an inverted microscope and colonies greater than 50 cells were scored as GM-colony forming units (CFU-GM), erythroid burst-forming unit (BFU-E), or granulocyte erythroid megakaryocyte macrophage-colony forming unit (CFU-GEMM). Cells, hematopoietic progenitor cell assays, LTBMCs, and statistical analyses were as in Example 1.

[5] = IL-3 1 ng/ml, GM-CSF 1 ng/ml, Epo 0.1 U/ml, IL-6 10 U/ml, G-CSF 0.1 ng/ml
[6] = back-calculated assuming each progenitor cell is equivalent to 2^10 (1024) mature cells
[7] = cumulative, rapidly perfused LTBMCs
[8] = rapidly perfused HGF supplemented LTBMCs

GM-CSF: hematopoietic growth factor, 1 ng/ml (Amgen Biologicals, Cat. No. 13050)
Cumulative cell production: Early Granulocytes (EG) [1, 5]: 2.7 ×10^6 cells per culture | Cumulative cell production: Erythroid (E) [1, 5]: 0.11 ×10^6 cells per culture | Cumulative cell production: Late Granulocytes (LG) [1, 5]: 6.8 ×10^6 cells per culture | Cumulative cell production: Macrophages (Mo) [1, 5]: 2.1 ×10^6 cells per culture | ratio (LG/EG) ([1]; late to early granulocytes): 2.5 | Estimated number of CFU-GM that differentiated (V3) [2, 6]: 11,700 | Number of GM cells removed (×10^4) (V3) [2, 7]: 11.7 ×10^4 | Number of CFU-GM removed (plated) (V2) ([2]; every fourth biweekly sampling assayed, others by linear interpolation, inoculum 2500 CFU-GM): 2200 | Total number of CFU-GM (V3) ([2]; removed plus differentiated): 13,900 | Estimated number of BFU-E that differentiated (V3) [3, 6]: 100 | Number of erythroid cells removed (×10^4) (V3) [3, 7]: 0.1 ×10^4 | Number of BFU-E removed (plated) (V3) ([3]; every fourth biweekly sampling assayed, others by linear interpolation, inoculum 2900 BFU-E): 800 | Total number of BFU-E (V3) ([3]; removed plus differentiated, inoculum 2900): 900 | increase in the total number of CFU-GEMM removed from culture [4, 7]: 1.6 fold | effect on total CFU-GM ([4]; individual growth factor): only a slight increase | cumulative number of progenitor cells removed: BFU-E [4, 8]: 800 | cumulative number of progenitor cells removed: CFU-GEMM [4, 8]: 80 | cumulative number of progenitor cells removed: CFU-GM [4, 8]: 2200
